The results in this text go back to PubChem BioAssay (NCI).

Some test systems named below: NCI-H226 lung; SN12C renal; K-562 leukemia; HS 578T breast; SNB-75 CNS; MOLT-4 leukemia; SK-MEL-28 melanoma; SF-539 CNS; UACC-257 melanoma; HOP-92 NSCLC.
Assay in all cases: inhibition of tumour cell growth, NCI panel, 48 h

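In this assay, cells in 96-well plates receive the compound at five concentrations for 48 hours. Endpoints are linearly interpolated between the surrounding concentrations. Here, GI50 denotes the concentration required for 50% inhibition of growth. TGI denotes the concentration required for complete inhibition of growth.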

Regarding `COc1cccc(C2=C(c3cn(C)c4ccccc34)C(=O)NC2=O)c1`, the GI50 in the experiment on NCI-H226 lung is 7.96 µM; in the experiment with SN12C renal, 12.5 µM; in the experiment on K-562 leukemia, 7.93 µM; in the experiment on HS 578T breast it was 4.8 µM; in the experiment with SNB-75 CNS, 1.32 µM; in the experiment on MOLT-4 leukemia, 8.54 µM. Also, the GI50 in the experiment on SK-MEL-28 melanoma was greater than 21.7 µM; in the experiment with SF-539 CNS, 16.5 µM; with UACC-257 melanoma, 15.7 µM; in the experiment on HOP-92 NSCLC it was greater than 25 µM. For the same molecule, the TGI in the experiment on NCI-H226 lung, with SN12C renal, with K-562 leukemia, with HS 578T breast, in the experiment on SNB-75 CNS and with MOLT-4 leukemia was greater than 25 µM each time. Also, the TGI in the experiment with SK-MEL-28 melanoma, in the experiment on SF-539 CNS, with UACC-257 melanoma and with HOP-92 NSCLC was greater than 25 µM each time.
